# Laboratory results taken from patent US20240165062A1, “COMPOSITION FOR INCREASING MUSCLE” (YUKI GOSEI KOGYO CO., LTD., priority 2022, published 2024).
# Legend:
# [1] = test system: MyHCIIa gene in C2C12 cells; conditions: differentiated C2C12 cells, β-alanine 0.5 mM, 1 mM and 10 mM for 2 days, FIG. 4
# Method: (§1) FIG. 4 is graphs showing the mRNA expressions of MyHCI (slow muscle)(A), MyHCIIa (fast muscle)(B), MyHCIIx (fast muscle)(C), and MyHCIIb (fast muscle) (D) measured by RT-qPCR in the C2C12 cells wherein the differentiated C2C12 cells were then treated by addition of 0.5, 1, or 10 (mM) of β-alanine for 2 days.
# (§2) In this example, β-alanine was added to C2C12 cells and the expression of MyHCI (slow muscle marker), MyHCIIa (fast muscle marker), MyHCIIb (fast muscle marker), and MyHCIIx (fast muscle marker) genes were examined.
# (§3) C2C12 cells were seeded in 6-well plates at a concentration of 2.0×10^5 cells/mL, and after 48 hours the medium was replaced with DMEM medium containing 2% Horse Serum (HS) (Thermo Fisher Scientific) to induce differentiation. Further, after 24 hours, the medium was replaced with DMEM medium containing 2% HS. The medium was changed every 2 days thereafter, and further the medium changes and the additions of β-alanine (0.5 mM, 1 mM, or 10 mM) were conducted on the 8th and 9th day after seeding. The cells on 10th day after seeding were used for the experiments. For controls, 1×PBS was added at the same volume as the amount of β-alanine.
# (§4) Total RNA preparation and RT-qPCR were performed according to Example 1.
# [2] = test system: MyHCIIb gene in C2C12 cells; conditions: differentiated C2C12 cells, β-alanine 1 mM and 10 mM for 2 days, FIG. 4
# Method: as §1, §2, §3, §4
# [3] = test system: MyHCI gene in C2C12 cells; conditions: differentiated C2C12 cells, β-alanine 0.5 mM, 1 mM and 10 mM for 2 days, FIG. 4
# Method: as §1, §2, §3, §4
# [4] = test system: MyHCIIx gene in C2C12 cells; conditions: differentiated C2C12 cells, β-alanine 1 mM and 10 mM for 2 days, FIG. 4
# Method: as §1, §2, §3, §4
# [5] = test system: MyoD gene in C2C12 cells; conditions: vs 1×PBS control, FIG. 2
# [6] = test system: MyHCIIa gene in C2C12 cells; conditions: β-alanine added twice at 24 h interval, vs 1×PBS control, FIG. 1
# Method: as §2
# (§5) High Pure RNA Isolation Kit (Roche, Basel, Switzerland) was used for total RNA preparation. C2C12 cells were seeded at a concentration of 5.0×10^4 cells/mL in 5 mL Dish. After 24 hours of incubation, β-alanine was added. 1×PBS was added to the control cells at the same volume as the added amount of β-alanine. Twenty-four hours after the addition of 3-alanine, sample was secondary added. After 24 hours of incubation, the culture supernatant was aspirated off. After washing the cells twice with 1×PBS, 1×PBS 200 μL/dish and […] of Lysis/-binding buffer included in High Pure RNA Isolation Kit were added to the entire dish, and the total amount was collected in a 1.5-mL tube. The collected samples were suspended using a vortex mixer for 60 seconds. The filter tube and the collection tube in the kit were assembled, the sample solution was added to the filter tube, and centrifuged at 4° C., 9200×g for 15 seconds. The liquid drained into the collection tube was discarded, and the filter tube and collection tube were assembled again. In a 1.5-mL tube, 90 μL of DNase Incubation Buffer per sample and 10 μL of DNase I per sample were mixed. The mixture was added to the filter tubes and incubated at room temperature for 15 minutes. After incubation, Wash buffer I (500 μL) was added to the filter tubes and centrifuged at 4° C., 9200×g for 15 seconds.
# [7] = test system: MyHCIIb gene in C2C12 cells; conditions: β-alanine added twice at 24 h interval, vs 1×PBS control, FIG. 1
# Method: as §2, §5
# [8] = test system: MyHCI gene in C2C12 cells; conditions: β-alanine added twice at 24 h interval, vs 1×PBS control, FIG. 1
# Method: as §2, §5
# [9] = test system: MyHCIIx gene in C2C12 cells; conditions: β-alanine added twice at 24 h interval, vs 1×PBS control, FIG. 1
# Method: as §2, §5
# [10] = test system: C2C12 cells; conditions: β-alanine 0.5 mM or 1.0 mM every 2 days, 9 days from induction of differentiation, FIG. 3
smiles,measurement,setting,value
NCCC(=O)O [β-alanine],MyHCIIa (fast muscle marker) gene expression,[1],concentration-dependent enhancement
same,MyHCIIb (fast muscle) mRNA expression,[2],significantly increased
same,MyHCI (slow muscle marker) mRNA expression,[3],significantly increased
same,MyHCIIx (fast muscle) mRNA expression,[4],significantly increased
same,"expression of MyoD, a transcriptional regulator of muscle differentiation",[5],increased
same,expression of the fast muscle marker MyHCIIa,[6],increased
same,expression of the fast muscle marker MyHCIIb,[7],increased
same,expression of the slow muscle marker MyHCI,[8],increased
same,expression of the fast muscle marker MyHCIIx,[9],increased
same,differentiation of myoblasts into myotube cells,[10],promoted
same,number of myotubular cells,[10],increased
same,ratio of slow muscle cells (slow muscle area / myotube area),[10],increased as the amount of β-alanine increased
